{"source": "paper PMC6273329", "about": "“Synthesis of N-(6-Arylbenzo[d]thiazole-2-acetamide Derivatives and Their Biological Activities: An Experimental and Computational Approach” (Molecules, 2016)", "key": {"[1]": {"test": "Nitric oxide scavenging assay (Garrat method, Griess reagent)", "procedure": "The literature contains reports on the antioxidant activities of 6-flourobenzothiazole-substituted triazoles using DPPH assays. […] Having a phenyl ring on the pyrozoline increased the antioxidant activity in the ferric ion reduction and DPPH solution methods. […] Synthesized compounds with their calculated IC50 values are listed in Table 5 (Figure 8 and Figure 9).\nThe activity of newly synthesized benzothiazole derivatives was determined using the Garrat method. Griess reported the Garrat method which is followed by a diazotization reaction. Under acidic conditions, this method utilizes sodium nitroprusside as the source of nitric oxide, sulfanilamide and N-1-naphthylethylenediamine dihydrochloride to detect NO2^−, produced at the expense of nitric oxide. A known amount of tested compounds 3a–3h was dissolved in sodium nitroprusside solution (20 mM, 100 µL) and then the volume was made up to 1000 µL with phosphate buffer (200 mM, pH 7.4). This solution was incubated for 2 h at 37 °C and Griess reagent (100 µL) was added. This solution was stored for 20 min at room temperature. At 528 nm, optical density of this colored solution was observed. For positive control, ascorbic acid was used."}, "[2]": {"tested_on": "red blood cells", "type": "cell-based", "procedure": "The haemolytic activity of benzothiazole derivatives has already been reported. […] Benzothiazole compounds with halogen substitutions show cytotoxicity towards cancer cell lines. The haemolytic activity of the newly synthesized benzothiazole derivatives were studied against Triton X-100 by a reported method.\nHaemolytic activity of newly synthesized benzothiazole derivatives 3a–3h was determined using a reported method. Solutions of compounds were prepared at concentrations of 1 mg/mL in 10% DMSO with 90% water Heparinized human fresh blood (3 mL) was used that was homogeneously mixed and added into a 15 mL sterile Falcon tube. It was centrifuged for 5 min and the supernatant was removed. Chilled sterile isotonic phosphate buffer saline solution (5 mL, 7.4 pH) at 4 °C was used three times. Washed red blood cells were suspended in chilled RBS (20 mL). A haemacytometer was used for counting erythrocytes. For each assay 7.068 × 10^8 red blood cells per mL count were maintained and then diluted blood cells (180 µL) were added to the test compound (20 µL) and suspended in Eppendorf tubes. It was incubated for 35 min at 37 °C then the tubes were kept in an ice bath for 5 min and centrifuged again for 5 min. After centrifugation, the obtained supernatant was collected carefully and diluted with 900 µL of chilled PBS. All these tubes were kept in ice bath and solution (200 µL) was added into 96 well plates from each Eppendrof tube. For each essay, Triton X-100 (0.1%) was taken as positive control. For negative control, phosphate buffer was used. A microplate reader was used for determining the absorbance at 576 nm."}, "[3]": {"target": "urease (Canavalia ensiformis, UniProt P07374)", "sequence (P07374 whole entry, looked up)": "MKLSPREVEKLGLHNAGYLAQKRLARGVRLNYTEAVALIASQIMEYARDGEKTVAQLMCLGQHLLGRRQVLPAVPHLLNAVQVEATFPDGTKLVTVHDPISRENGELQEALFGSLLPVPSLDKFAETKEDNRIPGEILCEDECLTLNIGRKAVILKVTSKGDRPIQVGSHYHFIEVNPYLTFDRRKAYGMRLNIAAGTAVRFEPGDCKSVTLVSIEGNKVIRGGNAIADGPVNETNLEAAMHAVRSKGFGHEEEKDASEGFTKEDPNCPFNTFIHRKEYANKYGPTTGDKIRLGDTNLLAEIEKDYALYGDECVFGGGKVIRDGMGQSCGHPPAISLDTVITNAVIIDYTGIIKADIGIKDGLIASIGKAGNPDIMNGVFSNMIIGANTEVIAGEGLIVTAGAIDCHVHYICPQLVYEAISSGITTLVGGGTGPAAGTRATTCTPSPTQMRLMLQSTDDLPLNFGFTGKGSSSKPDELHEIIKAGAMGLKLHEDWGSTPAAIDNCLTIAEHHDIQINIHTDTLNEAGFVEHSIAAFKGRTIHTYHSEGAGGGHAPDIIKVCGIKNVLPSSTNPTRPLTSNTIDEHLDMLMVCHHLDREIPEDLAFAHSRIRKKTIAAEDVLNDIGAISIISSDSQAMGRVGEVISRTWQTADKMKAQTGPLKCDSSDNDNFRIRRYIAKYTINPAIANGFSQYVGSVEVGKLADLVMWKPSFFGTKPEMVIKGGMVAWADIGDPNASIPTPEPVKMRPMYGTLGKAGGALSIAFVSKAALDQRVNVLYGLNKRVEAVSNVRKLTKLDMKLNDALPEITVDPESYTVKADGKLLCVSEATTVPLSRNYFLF", "test": "biochemical", "type": "biochemical", "details": "for IC50: urease inhibition, in vitro; for inhibition at 15 µg/mL: read-out: % Inhibition at 15 µg/mL, 15 µg/mL; for inhibition at 15 µg/mL / inhibition at 40 µg/mL / % Inhibition at 40 µg/mL: mean ± SD of three measurements; for inhibition at 40 µg/mL: read-out: % Inhibition at 40 µg/mL, 40 µg/mL"}, "[4]": {"tested_on": "S. dysenteriae", "test": "Antibacterial activity, 96 well plate method", "type": "cell-based", "details": "Shigella dysenteriae, read-out: % Activity at 40 μg/mL, S. dysenteriae", "procedure": "The synthesized benzothiazole derivatives were examined for their anti-bacterial activity against two Gram positive-bacterial strains (Baccilus subtiles, Staphylococcus aureus) and four Gram-negative strains (Escherichia coli, Psuedomonas aeruginosa, Shigella dysenteriae, Salmonella typhae) at concentrations of 40 and 80 μg/mL (Table 7 and Table 8). It was concluded that the potent antibacterial activities of these compounds might be due to electron withdrawing groups present on the aryl moiety in N-protected benzothiazole molecule.\nThese newly benzothiazole derivatives were tested for their antibacterial activities against two Gram positive strains (Baccilus subtilis, Staphylococcus aureus) and four Gram negative strains (Escherichia coli, Psuedomonas aeruginosa, Shigella dysenteriae and Salmonella typhae) using a reported protocol. Streptomycin was used as positive control. The 96 well plate method was optimized for measuring the antibacterial activities of these compounds. In each well, sterilized broth (175 µL) was added and inoculated with glycerol stock (5 µL) of a specific bacterial strain. The initial absorbance was observed between 0.12–0.19. […] After a certain waiting time (12 h), test sample (20 µL) was added to the pre-determined wells. […] The difference in absorbance values were observed and were used as an index of bacterial growth. […]"}, "[5]": {"details": "human, 35 min, 0.1 mg/mL, pH 7.4"}}, "note": "Read-outs that look alike come from different tables or passages of the source."}
{"compound": "O=C1O[C@H]([C@@H](O)CO)C(O)=C1O", "note": "[Ascorbic acid, reference compound]", "values": [{"measurement": "IC50 (µg/mL) nitric oxide scavenging", "setting": "[1]", "result": 50.43, "unit": "µg/mL"}]}
{"compound": "CC(=O)Nc1nc2ccc(Br)cc2s1", "note": "[Compound 2, N-(6-bromobenzo[d]thiazol-2-yl)acetamide]", "values": [{"measurement": "% lysis of RBC", "setting": "[2]; compound solutions 1 mg/mL in 10% DMSO, human RBC, 35 min at 37 °C, mean ± SD of three", "result": "44.628 ± 0.369", "unit": "%"}]}
{"compound": "CC(=O)Nc1nc2ccc(-c3ccccc3)cc2s1", "note": "[Compound 3a, N-(6-Phenylbenzo[d]thiazol-2-yl)acetamide]", "values": [{"measurement": "IC50", "setting": "[3]; IC50 (µg/mL)", "result": 69.3, "unit": "µM"}, {"measurement": "inhibition at 15 µg/mL", "setting": "[3]", "result": "44 ± 0.12", "unit": "%"}, {"measurement": "inhibition at 40 µg/mL", "setting": "[3]", "result": "83.9 ± 0.12", "unit": "%"}, {"measurement": "% lysis of RBC", "setting": "[2]; [5]", "result": "42.123 ± 0.479", "unit": "%"}, {"measurement": "IC50 (µg/mL) nitric oxide scavenging", "setting": "[1]", "result": 32.7, "unit": "µg/mL"}]}
{"compound": "CC(=O)Nc1nc2ccc(-c3ccc(C)cc3)cc2s1", "note": "[Compound 3b, N-(6-(p-Tolyl)benzo[d]thiazol-2-yl)acetamide]", "values": [{"measurement": "IC50", "setting": "[3]; IC50 (µg/mL)", "result": 58.4, "unit": "µM"}, {"measurement": "inhibition at 15 µg/mL", "setting": "[3]", "result": "47 ± 0.11", "unit": "%"}, {"measurement": "inhibition at 40 µg/mL", "setting": "[3]", "result": "90.51 ± 0.19", "unit": "%"}, {"measurement": "% lysis of RBC", "setting": "[2]; [5]", "result": "44.179 ± 0.157", "unit": "%"}, {"measurement": "IC50 (µg/mL) nitric oxide scavenging", "setting": "[1]", "result": 26.4, "unit": "µg/mL"}, {"measurement": "melting point", "result": "205 to 207", "unit": "°C"}]}
{"compound": "CC(=O)Nc1nc2ccc(-c3cc(C(F)(F)F)cc(C(F)(F)F)c3)cc2s1", "note": "[Compound 3c, N-(6-(3,5-bis(Trifluoromethyl)phenyl)benzo[d]thiazol-2-yl)acetamide]", "values": [{"measurement": "% Inhibition at 40 µg/mL", "setting": "[3]", "result": "90.07 ± 0.20", "unit": "%"}, {"measurement": "IC50", "setting": "[3]; IC50 (µg/mL)", "result": 42.5, "unit": "µM"}, {"measurement": "inhibition at 15 µg/mL", "setting": "[3]", "result": "46.09 ± 0.1", "unit": "%"}, {"measurement": "inhibition at 40 µg/mL", "setting": "[3]", "result": "90.33 ± 0.2", "unit": "%"}, {"measurement": "% lysis of RBC", "setting": "[2]; [5]", "result": "47.089 ± 0.130", "unit": "%"}]}
{"compound": "COc1ccc(-c2ccc3nc(NC(C)=O)sc3c2)cc1", "note": "[Compound 3d, N-(6-(4-Methoxyphenyl)benzo[d]thiazol-2-yl)acetamide]", "values": [{"measurement": "IC50", "setting": "[3]; IC50 (µg/mL)", "result": 57, "unit": "µM"}, {"measurement": "inhibition at 15 µg/mL", "setting": "[3]", "result": "46.5 ± 0.15", "unit": "%"}, {"measurement": "inhibition at 40 µg/mL", "setting": "[3]", "result": "88.5 ± 0.24", "unit": "%"}, {"measurement": "% lysis of RBC", "setting": "[2]; [5]", "result": "44.078 ± 0.279", "unit": "%"}, {"measurement": "melting point", "result": "218 to 220", "unit": "°C"}]}
{"compound": "CC(=O)Nc1nc2ccc(-c3ccc(C)s3)cc2s1", "note": "[Compound 3e, N-(6-(5-Methylthiophen-2-yl)benzo[d]thiazol-2-yl)acetamide]", "values": [{"measurement": "IC50", "setting": "[3]; IC50 (µg/mL)", "result": 59.6, "unit": "µM"}, {"measurement": "inhibition at 15 µg/mL", "setting": "[3]", "result": "46 ± 0.12", "unit": "%"}, {"measurement": "inhibition at 40 µg/mL", "setting": "[3]", "result": "87 ± 0.26", "unit": "%"}, {"measurement": "% lysis of RBC", "setting": "[2]; [5]", "result": "44.425 ± 0.181", "unit": "%"}, {"measurement": "IC50 (µg/mL) nitric oxide scavenging", "setting": "[1]", "result": 37.1, "unit": "µg/mL"}]}
{"compound": "CC(=O)Nc1nc2ccc(-c3cc(C#N)cc(C(F)(F)F)c3)cc2s1", "note": "[Compound 3f, N-(6-(3-Cyano-5-(trifluoromethyl)phenyl)benzo[d]thiazol-2-yl)acetamide]", "values": [{"measurement": "IC50", "setting": "[3]; IC50 (µg/mL)", "result": 53.1, "unit": "µM"}, {"measurement": "inhibition at 15 µg/mL", "setting": "[3]", "result": "42 ± 0.12", "unit": "%"}, {"measurement": "inhibition at 40 µg/mL", "setting": "[3]", "result": "87.5 ± 0.26", "unit": "%"}, {"measurement": "% lysis of RBC", "setting": "[2]; [5]", "result": "44.063 ± 0.314", "unit": "%"}, {"measurement": "nitric oxide scavenging activity (in words)", "setting": "[1]", "result": "inactive"}]}
{"compound": "CC(=O)Nc1nc2ccc(-c3ccc(F)c(Cl)c3)cc2s1", "note": "[Compound 3g, N-(6-(3-Chloro-4-fluorophenyl)benzo[d]thiazol-2-yl)acetamide]", "values": [{"measurement": "IC50", "setting": "[3]; IC50 (µg/mL)", "result": 58.9, "unit": "µM"}, {"measurement": "inhibition at 15 µg/mL", "setting": "[3]", "result": "42 ± 0.14", "unit": "%"}, {"measurement": "inhibition at 40 µg/mL", "setting": "[3]", "result": "87 ± 0.26", "unit": "%"}, {"measurement": "% lysis of RBC", "setting": "[2]; [5]", "result": "43.614 ± 0.157", "unit": "%"}, {"measurement": "IC50 (µg/mL) nitric oxide scavenging", "setting": "[1]", "result": 39.1, "unit": "µg/mL"}, {"measurement": "melting point", "result": "166 to 167", "unit": "°C"}]}
{"compound": "CC(=O)Nc1nc2ccc(-c3cc(C)cc(C)c3)cc2s1", "note": "[Compound 3h, N-(6-(3,5-Dimethylphenyl)benzo[d]thiazol-2-yl)acetamide]", "values": [{"measurement": "inhibition at 40 µg/mL", "setting": "[4]", "result": "3.51 ± 0.43", "unit": "%"}, {"measurement": "% Inhibition at 40 µg/mL", "setting": "[3]", "result": "90.33 ± 0.20", "unit": "%"}, {"measurement": "IC50", "setting": "[3]; IC50 (µg/mL)", "result": 62.1, "unit": "µM"}, {"measurement": "inhibition at 15 µg/mL", "setting": "[3]", "result": "43.59 ± 0.13", "unit": "%"}, {"measurement": "inhibition at 40 µg/mL", "setting": "[3]", "result": "90.07 ± 0.2", "unit": "%"}, {"measurement": "% lysis of RBC", "setting": "[2]; [5]", "result": "40.661 ± 0.216", "unit": "%"}, {"measurement": "IC50 (µg/mL) nitric oxide scavenging", "setting": "[1]", "result": 32.3, "unit": "µg/mL"}, {"measurement": "melting point", "result": "205 to 207", "unit": "°C"}]}
{"compound": "NC(N)=S", "note": "[Thiourea, reference compound]", "values": [{"measurement": "IC50", "setting": "[3]", "result": 23.1, "unit": "µg/mL"}]}
